Values quoted from earlier work, collected in patent publication US20200129637A1, “COMBINATION THERAPY WITH AN ANTI-AXL ANTIBODY-DRUG CONJUGATE” (ADC Therapeutics SA, priority 2017, published 2020).

Key:
[1] = tested on: AXL
[2] = tested on: AXL; settings: incubation of tumor cells with MEKi
[3] = tested on: chronic lymphocytic leukaemia cells

Compound | Efficiency of the homologous recombination repair machinery [1] | Expression of DNA repair genes [1] | AXL on the membrane of tumor cells [2] | ERCC1 transcription [3]
Nc1nc(Nc2ccc3c(c2)CC[C@@H](N2CCCC2)CC3)nn1-c1cc2c(nn1)-c1ccccc1CCC2 [BGB324] | diminish the efficiency | decrease expression of DNA repair genes |  | 
O=C(NOC[C@H](O)CO)c1ccc(F)c(F)c1Nc1ccc(I)cc1F [PD325901] |  |  | strong accumulation of AXL | 
CN1CCN(Cc2ccc(Nc3ncc(Cl)c(Nc4ccccc4S(=O)(=O)N(C)C)n3)cc2)CC1 [TP0903] | diminish the efficiency | decrease expression of DNA repair genes |  | 
N#CC(=C(/N)Sc1ccccc1N)/C(C#N)=C(\N)Sc1ccccc1N [U0126] |  |  | strong accumulation of AXL | 
Fludarabine |  |  |  | suppress ERCC1 transcription
